We go through 11 compounds from publication PMC12113431, “Chartarlactams U-X: Novel Phenylspirodrimanes from a Marine Derived Fungus Stachybotrys sp. SZU-W23 with Anti-Inflammatory Activity Mediated by the NF-κB/ROS Signaling Pathways” (Marine Drugs, 2025).

Where two headings read alike, the source gives them in different places.

The IC50 is the concentration that inhibits the measured activity by half.

The subject of series [1] is nitric oxide production in LPS-stimulated RAW 264.7 macrophages. The series is described as follows: Inhibition of NO production in LPS-stimulated RAW 264.7 macrophages (Griess reaction). It is filed as cell-based, mouse. Particulars: for IC50: Mus musculus, read-out: IC50, inhibition of NO production; for NO production inhibition at 10 μM: test concentration of 10 μM; for NO production inhibition at 10 μM / NO-inhibitory effect: RAW 264.7, LPS; for NO-inhibitory effect: tested at 3 to 30 μM. As for the experimental part: RAW 264.7 macrophages were seeded into 96-well plates at a density of 2.0 × 10^5 cells/well in complete DMEM and allowed to adhere for 2 h at 37 °C under 5% CO2. The cells were pretreated with compounds 1–15 (3–30 μM) for 2 h, followed by stimulation with ultrapure lipopolysaccharide (LPS; 100 ng/mL, from E. coli O111:B4, Sigma-Aldrich) for 24 h. NO production was assessed via the Griess reaction by quantifying nitrite (NO2^−) accumulation in culture supernatants.
Briefly, 50 μL of the cell-free supernatant from each well was mixed with 50 μL of 1% sulfanilamide (dissolved in 5% phosphoric acid; Griess Reagent A, Beyotime Biotechnology, Shanghai, China) and incubated for 5 min at room temperature. Subsequently, 50 μL of 0.1% N-1-naphthylethylenediamine dihydrochloride (Griess Reagent B, Beyotime Biotechnology) was added, followed by 5 min incubation in the dark. The absorbance was measured at 540 nm with a reference wavelength of 630 nm using a Synergy H1 microplate reader (BioTek Instruments, Winooski, VT, USA). Nitrite concentrations were interpolated from a sodium nitrite standard curve (0–100 μM; R^2 > 0.99).
Background: Nitrite, measured by Griess reagent, commonly stands in for NO production.

A further series deals with RAW 264.7 cells. The series is described as follows: Cytotoxicity, CCK-8 cell viability assay. It counts as cell-based, mouse. Particulars: for cytotoxicity (qualitative): tested at 3, 10 and 30 μM. As for the experimental part: RAW 264.7 cells were seeded into 96-well plates at a density of 1.0 × 10^5 cells/well (100 μL/well) in complete DMEM (high-glucose DMEM supplemented with 10% FBS, 100 U/mL penicillin, and 100 μg/mL streptomycin) and allowed to adhere for 24 h at 37 °C under 5% CO2. Subsequently, serial dilutions of compounds (0.3–30 μM in DMSO, with the final DMSO concentration < 0.1%) were added to respective wells and incubated for 24 h. Cell viability was assessed using the CCK-8 assay (Dojindo Laboratories, Kumamoto, Japan): 10% (v/v) CCK-8 reagent was added to each well, followed by incubation for 30 min at 37 °C. The absorbance was measured at 450 nm with a reference wavelength of 650 nm using a microplate reader (BioTek Instruments, Winooski, VT, USA).

The test system of series [2] is ROS production in RAW264.7 cells. The series is described as follows: LPS-induced ROS production (DCFH-DA fluorescent probe). Particulars: RAW264.7, LPS 24 h, concentrations that are not cytotoxic (0.3–10 μM). It is filed as cell-based, mouse. The protocol: RAW264.7 cells were seeded into black 96-well plates at a density of 5 × 10^4 cells per well and cultured for 2 h until they adhered to the plate. Subsequently, compound 10 at concentrations of 0.3, 1, 3, and 10 μM was added respectively, and the cells were cultured for another 2 h. Then, 100 ng/mL of LPS was added and the cells were co-cultured in an incubator at 37 °C for 24 h. After that, the production of ROS was detected. The cell culture medium in the 96-well plates was removed, and then […] of the fluorescent probe DCFH-DA solution diluted to 10 μM with serum-free DMEM medium was added. The plates were placed in the cell incubator and incubated in the dark for 30 min. Subsequently, the supernatant was removed and the cells were washed three times with phosphate-buffered saline (PBS). Finally, detection was carried out using a microplate reader (BioTek, Winooski, VT, USA) with an excitation wavelength of 488 nm and an emission wavelength of 525 nm.

The test system of series [3] is nitric oxide production in LPS-stimulated RAW 264.7 macrophages. The series is described as follows: Inhibition of NO production in LPS-stimulated RAW 264.7 macrophages (Griess reaction). It counts as cell-based, mouse. Particulars: re-evaluation within 0.3–10 μM, RAW264.7, LPS.
In series [4] the test system is iNOS mRNA expression in RAW 264.7 cells. Nature of the series: LPS-induced iNOS mRNA expression by RT-qPCR. It is filed as cell-based, mouse. The settings on record: RAW 264.7, 0.3–10 μM, LPS 24 h. The protocol:
(§1) RAW 264.7 cells (2 × 10^6 cells) were seeded into 30 mm petri dishes. After the cells adhered to the dishes for 2 h, compound 10 at concentrations of 0.3, 1, 3, and 10 μM was added, and the cells were cultured in an incubator at 37 °C for 2 h. Then, 100 ng/mL of LPS was added and the cells were co-cultured for 24 h. The cells were collected into 1.5 mL EP tubes, and total RNA was extracted using an RNA extraction kit. Then, the concentration of the total RNA was determined with a nucleic acid quantifier, and the RNA was reverse transcribed into the corresponding cDNA.
(§2) According to the operation procedures of the rapid reverse transcription kit, 1 μg of total RNA and 1 μL of dNTP Mixture were first added into a PCR tube. Then, RNase-free dH2O was added until the total volume of the solution reached 10 μL. After mixing evenly, the mixture was incubated at 65 °C for 5 min and then immediately placed on ice for ice-bathing. Subsequently, 4 μL of 5 × PrimeScript® Buffer, 0.5 μL of RNase Inhibitor (40 U/μL), 1 μL of PrimeScript® RTase (200 U/μL), and 4.5 μL of RNase Free dH2O were added to make the entire solution system reach 20 μL. […]
(§3) The reaction system mixture was prepared using a real-time quantitative PCR kit. […]
(Quantitative PCR measures a nucleic acid by following its amplification.)

A further series concerns the target T1, NF-κB p65 (Mus musculus, UniProt Q04207).
T1 construct: endogenous in cells; host or cells: RAW 264.7 murine macrophages, LPS-stimulated
The series is described as follows: DNA-binding activity of p65 (NF-κB p65 ELISA kit). It counts as cell-based. Particulars: 0.3–10 μM, p < 0.01 vs. LPS-only group. As for the experimental part:
To investigate the anti-inflammatory mechanism of compound 10, we quantified its inhibitory effect on the DNA-binding activity of p65 using a TransAM® NF-κB p65 ELISA kit (Ruixin Biotechnology, Guangzhou, China).
RAW 264.7 macrophages were seeded into 60 mm diameter culture dishes at a density of 3.0 × 10^6 cells/dish in complete DMEM and allowed to adhere for 2 h at 37 °C under 5% CO2. Cells were pretreated with Compound 10 (0.3–10 μM in DMSO, final solvent concentration < 0.1%) for 2 h, followed by stimulation with ultrapure LPS for an additional 2 h. The supernatant of cell culture medium was collected, and then NF-κB p65 binding activity of NF-κB in extracts was detected with NF-κB p65 kit (RUIXIN, Quanzhou, China).
A general note: An ELISA detects its analyte on a solid surface through an enzyme-linked reagent.

Series [5] concerns IL-1β expression in RAW 264.7 cells. Nature of the series: LPS-induced IL-1β expression by real time PCR. Particulars: RAW 264.7, 0.3–10 μM, LPS 24 h. It counts as cell-based, mouse. The protocol: as §1, §2, §3
Series [6] has as its system IL-6 expression in RAW 264.7 cells. The series is described as follows: LPS-induced IL-6 expression by real time PCR. It is filed as cell-based, mouse. Particulars: RAW 264.7, 0.3–10 μM, LPS 24 h. The protocol: as §1, §2, §3
Series [7] deals with TNF-α expression in RAW 264.7 cells. Nature of the series: LPS-induced TNF-α expression by real time PCR. It counts as cell-based, mouse. Particulars: RAW 264.7, 0.3–10 μM, LPS 24 h. As for the experimental part: as §1, §2, §3
Series [8] deals with NO production in LPS-activated RAW264.7 murine macrophages. Also on record: method as in doi:10.1039/C7RA09859F. The settings on record: read-out: IC50, inhibition of NO production; cited from earlier work.
The mark [9] stands for this setting: RAW264.7, LPS-stimulated RAW 264.7 macrophages, LPS 100 ng/mL, 24 h.

T1 sequence (Q04207 whole entry): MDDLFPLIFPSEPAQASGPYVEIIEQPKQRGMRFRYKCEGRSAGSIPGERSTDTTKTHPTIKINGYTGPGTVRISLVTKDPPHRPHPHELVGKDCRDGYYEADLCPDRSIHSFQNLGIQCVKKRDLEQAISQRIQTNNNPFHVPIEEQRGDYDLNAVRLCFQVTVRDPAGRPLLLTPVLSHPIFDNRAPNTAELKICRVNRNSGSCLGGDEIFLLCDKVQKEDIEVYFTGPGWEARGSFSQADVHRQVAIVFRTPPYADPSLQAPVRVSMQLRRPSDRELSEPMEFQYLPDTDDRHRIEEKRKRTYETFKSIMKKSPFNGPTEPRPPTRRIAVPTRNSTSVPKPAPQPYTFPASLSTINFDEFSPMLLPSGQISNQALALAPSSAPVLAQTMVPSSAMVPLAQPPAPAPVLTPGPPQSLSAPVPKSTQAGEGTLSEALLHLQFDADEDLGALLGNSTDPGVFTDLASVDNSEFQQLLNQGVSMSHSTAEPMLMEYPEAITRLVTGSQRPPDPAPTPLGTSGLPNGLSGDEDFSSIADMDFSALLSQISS

With `C[C@@H]1CC[C@H]2C(C)(C)[C@H](O)[C@H](O)C[C@]2(C)[C@@]12Cc1c(O)cc3c(c1O2)CN(CCc1ccc(O)cc1)C3=O` [Compound 1, Chartarlactam U], the IC50 in series [1] (setting [9]) came to 26.2 µM.
On the same count and under the same terms, the result for `CC1CCC2C(C)(C)C(O)C(O)CC2(C)C12Cc1c(O)cc3c(c1O2)C(=O)NC3=O` (centres unmarked) [Compound 3, Chartarlactam W] reads 22.4 µM.
Turning to `CCC(C)C(C(=O)O)N1Cc2c(cc(O)c3c2O[C@]2(C3)[C@H](C)CC[C@H]3C(C)(C)[C@H](O)[C@H](O)C[C@@]32C)C1=O` (some centres unmarked) [Compound 10], in the series on RAW 264.7 cells (up to 30 μM (0.3–30 μM in the abstract, 3 to 30 μM)), the “cytotoxicity over the tested concentration range” value is reported as “no detectable cytotoxicity”. Moreover, the ROS production entry in series [2] was “capable of inhibiting the production of ROS”. Moreover, in series [3], the “inhibitory effect on NO production at 0.3 μM” value is recorded as “potent inhibitory effect on NO production”. The “LPS-induced iNOS mRNA expression” value in series [4] was “significant suppression”. For the same compound, the “DNA-binding activity of p65” value on NF-κB p65 is listed as “significant suppression of p65 binding”. The IL-1β expression result in [5] is given as “dose-dependent attenuation”. Besides, the IC50 in [1] (setting [9]) is 12.4 µM. Moreover, in [1], the “NO production inhibition at 10 μM” value is recorded as “potent inhibitory effects”. The IL-6 expression result in series [6] was “dose-dependent attenuation”. Further, in series [7], the TNF-α expression entry was “dose-dependent attenuation”.
With `CC(C)CC(C(=O)O)N1Cc2c(cc(O)c3c2O[C@]2(C3)[C@H](C)CC[C@H]3C(C)(C)[C@H](O)[C@H](O)C[C@@]32C)C1=O` (some centres unmarked) [Compound 11], the “cytotoxicity at 30 μM” value with RAW 264.7 cells is “manifested cytotoxicity”. In series [1] (setting [9]), the IC50 was 4.4 µM. Moreover, in series [1], the “NO production inhibition at 10 μM” value is given as “potent inhibitory effects” and the NO-inhibitory effect entry was “significant NO-inhibitory effects”.
For `CC(C)CC(C(=O)O)N1Cc2c(cc(O)c3c2O[C@]2(C3)[C@H](C)CC[C@H]3C(C)(C)[C@H](O)CC[C@@]32C)C1=O` (some centres unmarked) [Compound 12], the “cytotoxicity at 30 μM” value in the series with RAW 264.7 cells was “manifested cytotoxicity”. The IC50 in series [1] (RAW264.7, 24 h) was 6.5 µM. In series [1], the “NO production inhibition at 10 μM” value is on record as “potent inhibitory effects” and the NO-inhibitory effect result is given as “significant NO-inhibitory effects”.
In the case of `C[C@@H]1CC[C@H]2C(C)(C)[C@H](O)CC[C@]2(C)[C@@]12Cc1c(O)cc3c(c1O2)CN(C(CCC(=O)O)C(=O)O)C3=O` (some centres unmarked) [Compound 13], the IC50 in series [1] (setting [9]) was 11.1 µM.
With `C[C@@H]1CC[C@H]2C(C)(C)[C@H](O)[C@H](O)C[C@]2(C)[C@@]12Cc1c(O)cc3c(c1O2)CNC3=O` [Compound 14], the “cytotoxicity (qualitative)” value with RAW 264.7 cells is “low cytotoxicity”.
On the same count and under the same terms, the result for `C[C@@H]1CC[C@H]2C(C)(C)[C@H](O)CC[C@]2(C)[C@@]12Cc1c(O)cc3c(c1O2)CNC3=O` [Compound 15] reads “low cytotoxicity”.
Regarding `COC(=O)CCCN1Cc2c(cc(O)c3c2O[C@]2(C3)[C@H](C)CC[C@H]3C(C)(C)[C@H](O)CC[C@@]32C)C1=O` [stachybonoid F], the IC50 in [8] is 52.5 µM.
As for `C[C@@H]1CC[C@H]2C(C)(C)[C@H](O)CC[C@]2(C)[C@@]12Cc1c(O)cc3c(c1O2)COC3=O` [stachybotrylactone], the IC50 in [8] is 17.9 µM.
Regarding `CC(=O)O[C@@H]1[C@H](O)C[C@@]2(C)[C@@H](CC[C@@H](C)[C@]23Cc2c(O)cc(CO)c(C=O)c2O3)C1(C)C` [stachybotrysin C], in series [8], the half-inhibitory concentration (IC50) is 27.2 µM.
